From patent US11299760B2 (Amgen Inc., priority 2013, dated 2022)

Tests used:
Cells producing MAb C = assay: mock perfusion assay, cell culture parameters; assay type: cell-based, Chinese hamster; conditions: for CVCD / Cumulative Titer / End of Production Viability / qP: MAb C
Protocol: (§1) Mock perfusion assay is a small scale, plate-based assay that is designed to mimic perfusion conditions in bioreactors through daily medium exchanges. For a 10-day mock perfusion assay, passaging cultures of various production cell lines were diluted 1:5 into chemically defined base perfusion medium in a 24 deep-well plate at a final volume of 3 ml per well. Mock perfusion was initiated on day 3 when the cells were spun down at 1000 rpm for 5 minutes and 25% of each spent culture medium was exchanged with the equivalent volume of fresh perfusion media. Subsequent medium exchange percentages were 40% on days 4-8 and 50% on day 9. Exchanged supernatants were stored at 4° C. prior to analysis.
(§2) Analysis of cell culture parameters was also started on day 3; viable cell density and viability were analyzed using the ViaCount Guava assay as previously described. Glucose was measured daily starting on day 3 and was maintained at 12 g/l. Stored supernatants were analyzed for antibody titer as described previously. Samples of supernatant fluid from days 6, 8 and 10 were also analyzed for the presence and type of glycans by HILIC analysis.
(§3) The cell lines used included three production cell lines that are known to generate mAbs with low high mannose glycans (MAb A, MAb B and MAb C) and one production cell line that consistently produces product with high levels of high mannose glycans (MAb D). […] Equivalent volumes of methanol were added daily to control cultures (columns 1 and 2 of the 24-well plate). This scheme is depicted below:
(§4) Viable cell density (VCD) and viability were measured daily starting on day 3. Spent medium samples were collected on days 3-10 and were subjected to titer analysis. Viable cell densities were used to calculate cumulative viable cell densities, which were along with cumulative titer values used to calculate specific productivities (qP). Every value shown is an average of duplicates.

Cells producing MAb A = assay: mock perfusion assay, cell culture parameters; assay type: cell-based, Chinese hamster; conditions: for CVCD / Cumulative Titer / End of Production Viability / qP: MAb A
Protocol: as §1, §2, §3, §4

Cells producing MAb D = assay: mock perfusion assay, cell culture parameters; assay type: cell-based, Chinese hamster; conditions: for CVCD / Cumulative Titer / End of Production Viability / qP: MAb D
Protocol: as §1, §2, §3, §4

Cells producing MAb B = assay: mock perfusion assay, cell culture parameters; assay type: cell-based, Chinese hamster; conditions: for CVCD / Cumulative Titer / End of Production Viability / qP: MAb B
Protocol: as §1, §2, §3, §4

[1] = test system: recombinant cell line producing MAb E; assay: ATF bioreactors, high mannose analysis (RP-HPLC/MS); assay type: cell-based
Protocol: The applicability of using monensin to modulate high mannose levels in a large scale, controlled production setting was evaluated using a recombinant cell line producing MAb E in alternating tangential flow (ATF) bioreactors. MAb E cells grown in growth medium for the seed train were used to inoculate the N-1 bioreactor at 6×10^5 cells/ml in growth medium. The cells from N-1 bioreactor were then used to inoculate three, 2 L production bioreactors (N) at 7.5×10^5 cells/ml in base perfusion medium (referred to as control, Ra, and Rb bioreactors).
The production bioreactors were grown for 20 days at pH 7.00, 36° C., 30% DO and 400 rpm agitation. These production tanks were run with the ATF system starting on day 3 with 0.5 vol/day perfusion rate, which was increased to 0.6 vol/day, 0.8352 vol/day and 1 vol/day on day 6, 7 and 8, respectively. Glucose levels were maintained separately at 5 g/L since the perfusion medium was prepared without glucose.
Antifoam was also added into the tank as needed, while 1M Sodium Carbonate was used to maintain pH at the desired setpoint. Daily tank samples were collected for the measurement of various cell culture parameters as well as for the titer and high mannose analyses.
Sixty micrograms of daily MAb E samples collected from ATF bioreactors were digested into the Fc/2 and Fab′2 with 60 units of the IdeS enzyme (fabRICATOR, Genovis, Lund, Sweden) in 50 mM Sodium Phosphate, 150 mM NaCl, pH 6.6 with incubation in a 37° C. water bath for 30 minutes. The digested samples were then reduced in 4M Guanidine Hydrochloride 50 mM Tris, pH 8.3 with 50 mM DTT followed by incubation in a 55° C. heat block for 10 minutes resulting in reduction to Fc/2, LC and Fd.
Following digestion and reduction, samples were analyzed immediately by RP-HPLC/MS.
Analysis was performed using Waters Acquity Ultra-Performance liquid chromatography (UPLC) system (Waters, Milford, Mass.) coupled to an Agilent MST Time of Flight (TOF) mass spectrometer (Agilent Technologies, Santa Clara, Calif.). The digested and reduced samples were separated on a reversed-phased Waters BEH Phenyl column (1.7 micron particle size, 2.1×150 mm; Waters, Milford, Mass.) maintained at 80° C. […]
Five micrograms of each sample was injected and eluted at a flow rate of 0.5 mL/min with the following gradient: 30% B was held for 2.5 minutes followed by a gradient from 30% to 45% B over a duration of 5 minutes, followed by a gradient from 45% to 100% B over 0.5 minutes; B was held at 100% for 4 minutes, followed by a gradient of 100% to 30% B over 0.1 minutes, and then held at 30% B for the remaining 2.9 minutes. The UV elution was also monitored at a wavelength of 220 nm. […] Ion intensities of the deconvoluted peaks were used for quantification of the glycan species.

[2] = increasing monensin (to 100 nM)
[3] = 500 nM monensin for ~22 hours from day 8, MAb E

Q: Which results are given for `CC[C@@]1([C@@H]2O[C@@H]([C@H]3O[C@@](O)(CO)[C@H](C)C[C@@H]3C)C[C@@H]2C)CC[C@H]([C@]2(C)CC[C@]3(C[C@H](O)[C@@H](C)[C@@H]([C@@H](C)[C@@H](OC)[C@H](C)C(=O)O)O3)O2)O1` [monensin]?
A: effect on cumulative viable cell density and viability (Cells producing MAb C; MAb C cells, mock perfusion): slightly increased cumulative viable cell density and improved the viability; effect on titer and specific productivity (Cells producing MAb C; MAb C cells, mock perfusion): increased titer but slightly lower specific productivity; titer and cell culture impacts (Cells producing MAb C; MAb C cells, mock perfusion with monensin): no drop in titer or any other negative cell culture impacts; CVCD (Cells producing MAb C; constant monensin 25 nM): 215 10^6 c-day/ml; Cumulative Titer (Cells producing MAb C; constant monensin 25 nM): 7.4 g/L; End of Production Viability (Cells producing MAb C; constant monensin 25 nM): 77%; qP (Cells producing MAb C; constant monensin 25 nM): 34 pg/c/d; CVCD (Cells producing MAb C; [2]): 208 10^6 c-day/ml; Cumulative Titer (Cells producing MAb C; [2]): 7.1 g/L; End of Production Viability (Cells producing MAb C; [2]): 77%; qP (Cells producing MAb C; [2]): 34 pg/c/d; effect on cell growth (Cells producing MAb A; MAb A cells, mock perfusion): decrease in total cell mass accumulation; effect on titer and specific productivity (Cells producing MAb A; MAb A cells, mock perfusion): decreased titer but increased specific productivity; CVCD (Cells producing MAb A; constant monensin 25 nM): 57 10^6 c-day/ml; Cumulative Titer (Cells producing MAb A; constant monensin 25 nM): 5.9 g/L; End of Production Viability (Cells producing MAb A; constant monensin 25 nM): 78%; qP (Cells producing MAb A; constant monensin 25 nM): 103 pg/c/d; CVCD (Cells producing MAb A; increasing monensin (to 50 nM)): 57 10^6 c-day/ml; Cumulative Titer (Cells producing MAb A; increasing monensin (to 50 nM)): 5.8 g/L; End of Production Viability (Cells producing MAb A; increasing monensin (to 50 nM)): 80%; qP (Cells producing MAb A; increasing monensin (to 50 nM)): 101 pg/c/d; effect on cell growth (Cells producing MAb D; MAb D cells, mock perfusion): similar, though not as pronounced, negative growth impact; effect on titer and specific productivity (Cells producing MAb D; MAb D cells, mock perfusion): slightly decreased the titer of MAb D cells but had no effect on specific productivity; CVCD (Cells producing MAb D; constant monensin 25 nM): 104 10^6 c-day/ml; Cumulative Titer (Cells producing MAb D; constant monensin 25 nM): 4.5 g/L; End of Production Viability (Cells producing MAb D; constant monensin 25 nM): 68%; qP (Cells producing MAb D; constant monensin 25 nM): 43 pg/c/d; CVCD (Cells producing MAb D; [2]): 89 10^6 c-day/ml; Cumulative Titer (Cells producing MAb D; [2]): 3.6 g/L; End of Production Viability (Cells producing MAb D; [2]): 53%; qP (Cells producing MAb D; [2]): 41 pg/c/d; effect on growth or viability (Cells producing MAb B; MAb B cells, mock perfusion): no effect on the growth or viability; effect on titer and specific productivity (Cells producing MAb B; MAb B cells, mock perfusion): no impact on either titer or specific productivity; CVCD (Cells producing MAb B; constant monensin 25 nM): 89 10^6 c-day/ml; Cumulative Titer (Cells producing MAb B; constant monensin 25 nM): 3.5 g/L; End of Production Viability (Cells producing MAb B; constant monensin 25 nM): 85%; qP (Cells producing MAb B; constant monensin 25 nM): 40 pg/c/d; CVCD (Cells producing MAb B; [2]): 88 10^6 c-day/ml; Cumulative Titer (Cells producing MAb B; [2]): 3.6 g/L; End of Production Viability (Cells producing MAb B; [2]): 83%; qP (Cells producing MAb B; [2]): 40 pg/c/d; high mannose levels, initial spike [1, 3]: 35-50%; increase in the levels of high mannose glycans on the recombinant antibodies [1, 3]: 9-10 fold; high mannose levels on the day of the harvest ([1]; after flushing out of monensin by perfusion, MAb E): 15-17%; produced antibodies containing high mannose glycans at peak ([1]; day 10, 500 nM monensin for ~22 hours from day 8, from predicted and measured levels): 89%
